Data reported in ChEMBL document CHEMBL1201862, “PubChem BioAssay data set” (2004).
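Grown in 96-well plates, cells were treated for 48 hours with each compound at five concentrations. Insufficient inhibition: endpoint recorded as highest concentration tested. GI50 marks 50% less growth.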 The source made the active and inactive calls. Cut-off read from the data, not from the text of the source: active = GI50 up to about 1.1 µM and inactive = higher.

How the values were obtained:
Test in all cases: inhibition of tumour cell growth, NCI panel, 48 h
786-0 = test system: 786-0
A498 = test system: A498
A549 = test system: A549
ACHN = test system: ACHN
BT-549 = test system: BT-549
CAKI-1 = test system: CAKI-1
CCRF-CEM = test system: CCRF-CEM
COLO 205 = test system: COLO 205
DU-145 = test system: DU-145
EKVX = test system: EKVX
HCC 2998 = test system: HCC 2998
HCT-116 = test system: HCT-116
HCT-15 = test system: HCT-15
HL-60 = test system: HL-60
HOP-62 = test system: HOP-62
HOP-92 = test system: HOP-92
HT-29 = test system: HT-29
Hs-578T = test system: Hs-578T
IGROV-1 = test system: IGROV-1
K562 = test system: K562
KM12 = test system: KM12
LOX IMVI = test system: LOX IMVI
M14 = test system: M14
MCF7 = test system: MCF7
MDA-MB-231 = test system: MDA-MB-231
MDA-MB-435 = test system: MDA-MB-435
MDA-N = test system: MDA-N
MOLT-4 = test system: MOLT-4
Malme-3M = test system: Malme-3M
NCI-H23 = test system: NCI-H23
NCI-H460 = test system: NCI-H460
NCI-H522 = test system: NCI-H522
NCI/ADR-RES = test system: NCI/ADR-RES
OVCAR-3 = test system: OVCAR-3
OVCAR-4 = test system: OVCAR-4
OVCAR-5 = test system: OVCAR-5
OVCAR-8 = test system: OVCAR-8
PC-3 = test system: PC-3
RPMI-8226 = test system: RPMI-8226
RXF 393 = test system: RXF 393
SF-268 = test system: SF-268
SF-295 = test system: SF-295
SF-539 = test system: SF-539
SK-MEL-28 = test system: SK-MEL-28
SK-MEL-2 = test system: SK-MEL-2
SK-MEL-5 = test system: SK-MEL-5
SK-OV-3 = test system: SK-OV-3
SN12C = test system: SN12C
SNB-19 = test system: SNB-19
SNB-75 = test system: SNB-75
SW-620 = test system: SW-620
T47D = test system: T47D
TK-10 = test system: TK-10
U-251 = test system: U-251
UACC-257 = test system: UACC-257
UACC-62 = test system: UACC-62
UO-31 = test system: UO-31
NCI-H226 = test system: NCI-H226
SR = test system: SR

[O-]c1c[n+](CCCC[n+]2cc([O-])on2)no1
GI50 (786-0): > 100 µM (inactive) | GI50 (A498): > 100 µM (inactive) | GI50 (A549): > 100 µM (inactive) | GI50 (ACHN): > 100 µM (inactive) | GI50 (BT-549): > 100 µM (inactive) | GI50 (CAKI-1): > 100 µM (inactive) | GI50 (CCRF-CEM): > 100 µM (inactive) | GI50 (COLO 205): > 100 µM (inactive) | GI50 (DU-145): > 100 µM (inactive) | GI50 (EKVX): > 100 µM (inactive) | GI50 (HCC 2998): > 100 µM (inactive) | GI50 (HCT-116): > 100 µM (inactive) | GI50 (HCT-15): > 100 µM | GI50 (HL-60): > 100 µM (inactive) | GI50 (HOP-62): > 100 µM (inactive) | GI50 (HOP-92): > 100 µM (inactive) | GI50 (HT-29): > 100 µM (inactive) | GI50 (Hs-578T): > 100 µM (inactive) | GI50 (IGROV-1): > 100 µM (inactive) | GI50 (K562): > 100 µM (inactive) | GI50 (KM12): > 100 µM (inactive) | GI50 (LOX IMVI): > 100 µM (inactive) | GI50 (M14): > 100 µM (inactive) | GI50 (MCF7): > 100 µM (inactive) | GI50 (MDA-MB-231): > 100 µM (inactive) | GI50 (MDA-MB-435): > 100 µM (inactive) | GI50 (MDA-N): > 100 µM (inactive) | GI50 (MOLT-4): 22.8 µM (inactive) | GI50 (Malme-3M): > 100 µM (inactive) | GI50 (NCI-H23): > 100 µM (inactive) | GI50 (NCI-H460): > 100 µM (inactive) | GI50 (NCI-H522): > 100 µM (inactive) | GI50 (NCI/ADR-RES): > 100 µM (inactive) | GI50 (OVCAR-3): > 100 µM (inactive) | GI50 (OVCAR-4): > 100 µM (inactive) | GI50 (OVCAR-5): > 100 µM (inactive) | GI50 (OVCAR-8): > 100 µM (inactive) | GI50 (PC-3): > 100 µM (inactive) | GI50 (RPMI-8226): > 100 µM (inactive) | GI50 (RXF 393): > 100 µM (inactive) | GI50 (SF-268): > 100 µM (inactive) | GI50 (SF-295): > 100 µM (inactive) | GI50 (SF-539): > 100 µM (inactive) | GI50 (SK-MEL-28): > 100 µM (inactive) | GI50 (SK-MEL-2): > 100 µM (inactive) | GI50 (SK-MEL-5): > 100 µM (inactive) | GI50 (SK-OV-3): > 100 µM (inactive) | GI50 (SN12C): > 100 µM (inactive) | GI50 (SNB-19): > 100 µM (inactive) | GI50 (SNB-75): > 100 µM (inactive) | GI50 (SW-620): > 100 µM (inactive) | GI50 (T47D): > 100 µM (inactive) | GI50 (TK-10): > 100 µM (inactive) | GI50 (U-251): > 100 µM (inactive) | GI50 (UACC-257): > 100 µM (inactive) | GI50 (UACC-62): > 100 µM (inactive) | GI50 (UO-31): > 100 µM (inactive)

CCOC(=O)c1c(N2CCOCC2)ncn(-c2cccc(Cl)c2)c1=O
GI50 (786-0): > 100 µM (inactive) | GI50 (A498): 0.159 µM (active) | GI50 (A549): > 100 µM (inactive) | GI50 (ACHN): > 100 µM (inactive) | GI50 (BT-549): > 100 µM (inactive) | GI50 (CAKI-1): > 100 µM (inactive) | GI50 (CCRF-CEM): > 100 µM (inactive) | GI50 (COLO 205): > 100 µM (inactive) | GI50 (DU-145): > 100 µM (inactive) | GI50 (EKVX): > 100 µM (inactive) | GI50 (HCC 2998): > 100 µM (inactive) | GI50 (HCT-116): > 100 µM (inactive) | GI50 (HCT-15): > 100 µM | GI50 (HL-60): > 100 µM (inactive) | GI50 (HOP-62): > 100 µM (inactive) | GI50 (HOP-92): > 100 µM (inactive) | GI50 (HT-29): > 100 µM (inactive) | GI50 (Hs-578T): > 100 µM (inactive) | GI50 (IGROV-1): > 100 µM (inactive) | GI50 (K562): > 100 µM (inactive) | GI50 (KM12): > 100 µM (inactive) | GI50 (LOX IMVI): > 100 µM (inactive) | GI50 (M14): > 100 µM (inactive) | GI50 (MCF7): > 100 µM (inactive) | GI50 (MDA-MB-231): > 100 µM (inactive) | GI50 (MDA-MB-435): > 100 µM (inactive) | GI50 (MDA-N): > 100 µM (inactive) | GI50 (MOLT-4): > 100 µM (inactive) | GI50 (Malme-3M): > 100 µM (inactive) | GI50 (NCI-H226): > 100 µM (inactive) | GI50 (NCI-H23): > 100 µM (inactive) | GI50 (NCI-H460): > 100 µM (inactive) | GI50 (NCI-H522): > 100 µM (inactive) | GI50 (NCI/ADR-RES): > 100 µM (inactive) | GI50 (OVCAR-3): > 100 µM (inactive) | GI50 (OVCAR-4): > 100 µM (inactive) | GI50 (OVCAR-5): > 100 µM (inactive) | GI50 (OVCAR-8): > 100 µM (inactive) | GI50 (PC-3): > 100 µM (inactive) | GI50 (RPMI-8226): > 100 µM (inactive) | GI50 (RXF 393): > 100 µM (inactive) | GI50 (SF-268): > 100 µM (inactive) | GI50 (SF-295): > 100 µM (inactive) | GI50 (SF-539): > 100 µM (inactive) | GI50 (SK-MEL-28): > 100 µM (inactive) | GI50 (SK-MEL-2): > 100 µM (inactive) | GI50 (SK-OV-3): > 100 µM (inactive) | GI50 (SN12C): > 100 µM (inactive) | GI50 (SNB-19): > 100 µM (inactive) | GI50 (SNB-75): > 100 µM (inactive) | GI50 (SW-620): > 100 µM (inactive) | GI50 (T47D): > 100 µM (inactive) | GI50 (TK-10): > 100 µM (inactive) | GI50 (U-251): > 100 µM (inactive) | GI50 (UACC-257): > 100 µM (inactive) | GI50 (UACC-62): > 100 µM (inactive)

Cc1ccc(S[C@@H](C)[C@@](O)(C(N)=O)c2ccccc2)cc1
GI50 (786-0): 72.6 µM (inactive) | GI50 (A549): 42.1 µM (inactive) | GI50 (ACHN): 68.5 µM (inactive) | GI50 (BT-549): 30.1 µM (inactive) | GI50 (CAKI-1): 16.6 µM (inactive) | GI50 (CCRF-CEM): 7.67 µM (inactive) | GI50 (COLO 205): 34.4 µM (inactive) | GI50 (DU-145): 72.9 µM (inactive) | GI50 (EKVX): 13.9 µM (inactive) | GI50 (HCC 2998): > 100 µM (inactive) | GI50 (HCT-116): 35.2 µM (inactive) | GI50 (HCT-15): 84.3 µM | GI50 (HL-60): 37.3 µM (inactive) | GI50 (HOP-62): 23.6 µM (inactive) | GI50 (HOP-92): 18.7 µM (inactive) | GI50 (HT-29): 41.3 µM (inactive) | GI50 (Hs-578T): > 100 µM (inactive) | GI50 (IGROV-1): 3.74 µM (inactive) | GI50 (K562): 15 µM (inactive) | GI50 (KM12): 40.8 µM (inactive) | GI50 (LOX IMVI): 14.7 µM (inactive) | GI50 (M14): > 100 µM (inactive) | GI50 (MCF7): 44.8 µM (inactive) | GI50 (MDA-MB-231): 19.2 µM (inactive) | GI50 (MDA-MB-435): 45.6 µM (inactive) | GI50 (MDA-N): 33.8 µM (inactive) | GI50 (MOLT-4): 12.4 µM (inactive) | GI50 (Malme-3M): 21 µM (inactive) | GI50 (NCI-H226): 64.4 µM (inactive) | GI50 (NCI-H23): 29.8 µM (inactive) | GI50 (NCI-H460): 85.1 µM (inactive) | GI50 (NCI-H522): 16.7 µM (inactive) | GI50 (NCI/ADR-RES): 19.9 µM (inactive) | GI50 (OVCAR-3): > 100 µM (inactive) | GI50 (OVCAR-4): 21 µM (inactive) | GI50 (OVCAR-5): > 100 µM (inactive) | GI50 (OVCAR-8): 38.5 µM (inactive) | GI50 (PC-3): 35.4 µM (inactive) | GI50 (RPMI-8226): 21.7 µM (inactive) | GI50 (RXF 393): 86.1 µM (inactive) | GI50 (SF-268): > 100 µM (inactive) | GI50 (SF-295): 18.5 µM (inactive) | GI50 (SF-539): 25.6 µM (inactive) | GI50 (SK-MEL-28): > 100 µM (inactive) | GI50 (SK-MEL-2): 39.4 µM (inactive) | GI50 (SK-MEL-5): 20.6 µM (inactive) | GI50 (SK-OV-3): > 100 µM (inactive) | GI50 (SN12C): > 100 µM (inactive) | GI50 (SNB-19): > 100 µM (inactive) | GI50 (SNB-75): > 100 µM (inactive) | GI50 (SR): > 10 µM (inactive) | GI50 (SW-620): 39 µM (inactive) | GI50 (T47D): 26.7 µM (inactive) | GI50 (TK-10): > 100 µM (inactive) | GI50 (U-251): 70.3 µM (inactive) | GI50 (UACC-257): 13 µM (inactive) | GI50 (UACC-62): 40.3 µM (inactive) | GI50 (UO-31): 15.2 µM (inactive)
